Measurements: paper PMC11084152, “Galf-Specific Neolectins: Towards Promising Diagnostic Tools” (International Journal of Molecular Sciences, 2024)
pEC50, pIC50: −log10 of the molar value. Where two headings read alike, the source gives them in different places.

Legend:
[1] = system: T1, Galf-ase (wild-type Galf-ase; E464); test: Absorbance at 405 nm of p-nitrophenol released by hydrolysis of pNP-β-D-Galf (0.01-5 mM), citrate/phosphate buffer pH 4.5, 37 °C, 20 min, stopped with Na2CO3.; assay type: biochemical; settings: n = 3; cited from earlier work
T1 construct: pET-28a(+) construct, expressed in E. coli Rosetta (DE3), Ni-NTA purified
Experimental: In analysing the hydrolitic activity and the hydrolysis rate-limiting steps of the three Galf-ase mutant variants E464S, E464C, and E464Q, the Michaelis–Menten kinetic parameters were determined under the similar conditions used for wild-type enzyme. […] Altogether, the obtained values are in the same order of magnitude. […] The significant decrease in catalytic efficiency by a factor of 3000–1400 times for E464S and E464C mutants, respectively, and 56 times lower for E464Q mutant is observed. These kinetic observations are in accordance with the other data obtained in similar assays used for the identification of the catalytic residues in retaining and inverting several GHs. The Galf-ase mutant variant E464Q featured only a minor change in the KM value, 166 µM compared to 250 µM, of the wild-type Galf-ase and, given the advantage that, contrary to other mutant variants, it was purified in sufficient quantities (0.3 mg/L), it was selected as a promising candidate to be tested as a novel Galf-binding lectin (GalfNeoLect). […]
Kinetic parameters were determined with pNP-β-D-Galf as a substrate in different concentration ranges (0.01–5 mM). […] All the reactions were assayed in triplicate and absorbance values were corrected for the spontaneous hydrolysis of the substrate. The kinetic parameters (KM, Vm, kcat) were calculated using GraphPad Prism 5 software (GraphPad Software, San Diego, CA, USA). […]

E464C = system: T2, E464C; test: as above; assay type: biochemical; settings: n = 3
T2 construct: pET-28a(+) construct, expressed in E. coli Rosetta (DE3), Ni-NTA purified
Experimental: (§1) In analysing the hydrolitic activity and the hydrolysis rate-limiting steps of the three Galf-ase mutant variants E464S, E464C, and E464Q, the Michaelis–Menten kinetic parameters were determined under the similar conditions used for wild-type enzyme. […] Altogether, the obtained values are in the same order of magnitude. […] The significant decrease in catalytic efficiency by a factor of 3000–1400 times for E464S and E464C mutants, respectively, and 56 times lower for E464Q mutant is observed. These kinetic observations are in accordance with the other data obtained in similar assays used for the identification of the catalytic residues in retaining and inverting several GHs. The Galf-ase mutant variant E464Q featured only a minor change in the KM value, 166 µM compared to 250 µM, of the wild-type Galf-ase and, given the advantage that, contrary to other mutant variants, it was purified in sufficient quantities (0.3 mg/L), it was selected as a promising candidate to be tested as a novel Galf-binding lectin (GalfNeoLect). Further in the article, the E464Q mutant variant is addressed as GalfNeoLect.
(§2) Kinetic parameters were determined with pNP-β-D-Galf as a substrate in different concentration ranges (0.01–5 mM). The reaction (200 μL), containing buffer (20 μL; 0.1 M citric acid/0.2 M Na2HPO4 pH 4.5) and water, if required, was started by addition of the enzyme (2 μL; 0.13 mg/mL) and, after 20 min of incubation at 37 °C (water bath), the reaction was terminated (100 μL; 1 M Na2CO3) and absorbance (405 nm) of released pNP was measured. All the reactions were assayed in triplicate and absorbance values were corrected for the spontaneous hydrolysis of the substrate. The kinetic parameters (KM, Vm, kcat) were calculated using GraphPad Prism 5 software (GraphPad Software, San Diego, CA, USA).
(§3) Figure S4. Michaelis–-Menten plot of pNP-β-D-Galf hydrolysis reaction catalysed by Galf-ase E464S, E464C, and
(§4) E464Q mutant variants. Mean values and SD error bars were calculated from three independent experiments
(§5) (*except E464C) and from a single protein preparation. […]

E464S = system: T3, E464S; test: as above; assay type: biochemical; settings: n = 3
T3 construct: pET-28a(+) construct, expressed in E. coli Rosetta (DE3), Ni-NTA purified
Experimental: as §1, §2, §3, §4, §5

E464Q (GalfNeoLect) = system: T4, E464Q (GalfNeoLect); test: as above; assay type: biochemical; settings: n = 3
T4 construct: pET-28a(+) construct, expressed in E. coli Rosetta (DE3), Ni-NTA purified
Experimental: as §1, §2, §3, §4, §5

GalfNeoLect = GalfNeoLect (Streptomyces sp. JHA19, UniProt A0A0K2SRV3, E464Q); test: Competitive inhibition assay of GalfNGP binding to immobilised GalfNeoLect; parameters: species or system Streptomyces sp. strain JHA19; settings: for inhibition of GalfNGP binding to immobilised GalfNeoLect: result in words; for pIC50: biotinylated GalfNGP (2 μg/mL) as tracer, read-out: IC50 of inhibitors towards GalfNeoLect
Sequence of GalfNeoLect (A0A0K2SRV3 45-786 E464Q limits assumed): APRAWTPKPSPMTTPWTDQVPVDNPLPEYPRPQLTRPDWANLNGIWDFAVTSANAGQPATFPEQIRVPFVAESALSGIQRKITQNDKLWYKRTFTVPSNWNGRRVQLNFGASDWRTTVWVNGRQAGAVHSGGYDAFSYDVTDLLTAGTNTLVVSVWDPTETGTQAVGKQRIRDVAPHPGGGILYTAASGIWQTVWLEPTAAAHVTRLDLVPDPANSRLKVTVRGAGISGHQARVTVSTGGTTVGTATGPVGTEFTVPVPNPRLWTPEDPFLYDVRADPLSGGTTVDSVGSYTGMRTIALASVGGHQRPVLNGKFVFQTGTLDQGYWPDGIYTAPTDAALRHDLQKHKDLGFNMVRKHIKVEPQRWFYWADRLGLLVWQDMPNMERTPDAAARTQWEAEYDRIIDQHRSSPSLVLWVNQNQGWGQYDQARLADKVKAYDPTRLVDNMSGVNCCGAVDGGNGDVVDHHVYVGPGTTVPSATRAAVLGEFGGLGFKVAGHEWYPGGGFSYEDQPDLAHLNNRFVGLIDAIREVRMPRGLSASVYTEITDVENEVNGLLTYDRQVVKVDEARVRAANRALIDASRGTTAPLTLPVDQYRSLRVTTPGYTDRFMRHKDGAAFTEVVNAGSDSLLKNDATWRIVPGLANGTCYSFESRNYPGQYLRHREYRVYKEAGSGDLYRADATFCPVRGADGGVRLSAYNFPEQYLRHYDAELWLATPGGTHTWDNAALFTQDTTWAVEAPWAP
Experimental: In the competitive inhibition assay, we investigated the ability of selected pNP, azido, or thyoaryl monosaccharide substrates (Galf-N3, Galf-thioaryl, pNP-β-D-Galf, pNP-β-D-Galp, pNP-α-L-Araf, pNP-β-D-Ribf) (Figure 5) for their ability to inhibit the binding of GalfNGP to immobilised GalfNeoLect.
(§6) The interaction profiles of each compound were determined through an indirect method, based on the inhibition by the compound of the interaction between a specific coupled lectin–glycan (a neoglycoprotein labelled with biotin and used as a tracer). Briefly, a mix of biotinylated GalfNGP (fixed concentration) and the corresponding compounds (in a range of concentrations), prepared in PBS supplemented with 1 mM CaCl2 and 0.5 mM MgCl2, are deposed in each well (50 μL each) in triplicate and incubated for 2 h at room temperature. After washing with PBS buffer, the conjugate streptavidin-DTAF was added (50 μL) and incubated for 30 min more. The plate was washed again with PBS. Finally, 100 μL of PBS was added for the readout of the fluorescent plate, performed with a fluorescence reader (λex = 485 nm, λem = 530 nm, Fluostar OPTIMA, BMG LABTECH, France). The signal intensity was inversely correlated with the capacity of the compound to be recognised by the lectin and expressed as inhibition percentage with comparison with the corresponding biotinylated GalfNGP alone.
Aspergillus brasiliensis (ATCC 16404) culture was inoculated on Sabouraud agar plates and incubated at 37 °C for 4 days until the formation of a black mycelium mat, which contains spores. Fresh spores were harvested with a sterile plastic inoculation loop by rubbing the black mycelium mat and dispersed in physiological serum solution (0.8% NaCl, 10 mL). The spore solution was resuspended well by using a vortex to prevent aggregation and was calibrated using a Malassez counting chamber to 5.10^6 spores/mL. Spores’ solutions (5.10^6 spores/mL) were used directly in inhibition assays with GalfNeoLect, following the same protocol describe above (Section 4.8).

wild-type Galf-ase [2] = molecular target: T5, wild-type Galf-ase (Streptomyces sp. JHA19, UniProt A0A0K2SRV3); test: Competitive inhibition assay of GalfNGP binding to wild-type Galf-ase; parameters: species or system Streptomyces sp. strain JHA19; settings: biotinylated GalfNGP (2 μg/mL) as tracer; read-out: IC50 of inhibitors towards wild-type Galf-ase
Experimental: Indeed, Table 6 summarises the 50% inhibitory concentrations (IC50) obtained from all compounds studied.
as §6
Target sequence in this assay (A0A0K2SRV3 45-786 limits assumed): as the sequence (A0A0K2SRV3 45-786 E464Q limits assumed) above, with Q420E counted along it

wild-type Galf-ase [3] = molecular target: T5, wild-type Galf-ase; test: Direct binding assay (ELLA) of biotinylated neoglycoproteins to immobilised wild-type Galf-ase; parameters: species or system Streptomyces sp. strain JHA19; settings: read-out: BC50 (concentration to obtain 50% GalfNGP binding)
Excerpt: To study and evaluate the binding interactions of Galf-ase E464Q mutant variant, as novel Galf-binding lectin (GalfNeoLect), we synthetised novel neoglycoproteins (NGPs) to serve as the Galf-bearing scaffold. Bovine serum albumin (BSA), a well-known, naturally unglycosylated protein that has up to 60 primary amino functional groups available for click-conjugation chemistry, has been functionalised with Galf motifs. Galf-N3, involved in the corresponding click reaction with propargyl functionalised BSA, was obtained from the corresponding per-O-acetyl galactofuranose using TMSN3 as a source of azide and TMSOTf as the Lewis acid (see ESI for chemical synthesis). After acetyl cleavage, the resulting/expected Galf-conjugated BSA neoglycoprotein (GalfNGP) synthesis has been first characterised for its functionality by direct binding assay with human Intelectin-1 (hIntL-1), wild-type Galf-ase, and GalfNeoLect. As hIntL-1 has been reported to bind furanose residues (five-membered-ring saccharide isomers), including a β-Galf–containing disaccharide, it served as a positive control for the evaluation of newly synthetised GalfNGP. […]
The assays were performed according to GlycoDiag’s protocol, already described in the literature. […] Finally, 100 μL of PBS was added for reading the plate using a fluorescence reader (λex = 485 nm, λem = 530 nm, Fluostar OPTIMA, BMG LABTECH, France). […]

Row | Compound | inhibition of GalfNGP binding to immobilised GalfNeoLect (GalfNeoLect) | pIC50 (GalfNeoLect) | pIC50 (wild-type Galf-ase [2]) | other results
1 | O=[N+]([O-])c1ccc(O[C@@H]2O[C@@H]([C@H](O)CO)[C@H](O)[C@H]2O)cc1 [pNP-β-D-Galf, p-nitrophenyl β-D-galactofuranoside] | – | – | – | Km [1]: 250 µM; Km (E464C): 170 µM; Km (E464S): 36 µM; Km (E464Q (GalfNeoLect)): 166 µM
2 | O=[N+]([O-])c1ccc(O[C@@H]2O[C@@H](CO)[C@H](O)[C@H]2O)cc1 [pNP-α-L-Araf] | no inhibition | – | – | –
3 | O=[N+]([O-])c1ccc(O[C@@H]2O[C@@H]([C@H](O)CO)[C@H](O)[C@H]2O)cc1 [pNP-β-D-Galf] | – | 2.94 | 3.25 | –
4 | GalfNGP: Galf-conjugated bovine serum albumin neoglycoprotein carrying multivalent Galf units | – | – | – | pEC50 (wild-type Galf-ase [3]): 7.62
5 | Cc1ccc(S[C@@H]2O[C@@H]([C@H](O)CO)[C@H](O)[C@H]2O)cc1 [Galf-thioaryl] | – | 3.74 | 3.74 | pIC50 (GalfNeoLect; listed as Galf-Thioaryl): 3.82
6 | O=[N+]([O-])c1ccc(OC2OC(CO)C(O)C2O)cc1 [pNP-β-D-Ribf] | no inhibition | – | – | –
7 | O=[N+]([O-])c1ccc(O[C@@H]2O[C@H](CO)[C@H](O)[C@H](O)[C@H]2O)cc1 [pNP-β-D-Galp] | no inhibition | – | – | –
8 | [N-]=[N+]=N[C@@H]1O[C@@H]([C@H](O)CO)[C@H](O)[C@H]1O [Galf-N3, β-D-galactofuranosyl azide] | – | 2.86 | 3.23 | –
